These are literature values, as cited in PMC2643498 (The Journal of Biological Chemistry, 2009).

pKi: −log10 of the molar value. Where only a bound is given, the exact number is not on record here.

One data set concerns AtCCD1. The settings on record: 100 μM.
The next data set concerns the target recombinant NCED. The settings on record: read-out: Ki (NCED).
For a further data set, the system named is AtNCED3. The settings on record: 100 μM.

In the case of abamineSG, the “inhibition of AtCCD1” value with AtCCD1 is ≤ 20%. The negative logarithm of the Ki (pKi) at recombinant NCED was 4.73. For the same substance, the “inhibition of AtNCED3” value in the data set on AtNCED3 is reported as 78%.

A word on the pKi: it is −log10 of the Ki, conventionally taken in molar units.
